# Source: patent publication US20080269251A1, “Substituted Pyrazinone Derivatives as Alpha2C-Adrenoreceptor Antagonists” (priority 2005, published 2008)
# How the values were obtained:
# [1] = target: T1, human adrenergic-α2A receptor (Homo sapiens, UniProt P08913); test: Radioligand binding experiment for hα2A-adrenergic receptor ([3H]raulwolscine); settings: [3H]raulwolscine 1 nM, 60 minutes at 25° C.; for IC50: read-out: h-α2A pIC50 (converted)
# T1 construct: expressed in transfected cells; host or cells: CHO cells, stably transfected; membrane preparation
# T1 sequence (P08913 1-465): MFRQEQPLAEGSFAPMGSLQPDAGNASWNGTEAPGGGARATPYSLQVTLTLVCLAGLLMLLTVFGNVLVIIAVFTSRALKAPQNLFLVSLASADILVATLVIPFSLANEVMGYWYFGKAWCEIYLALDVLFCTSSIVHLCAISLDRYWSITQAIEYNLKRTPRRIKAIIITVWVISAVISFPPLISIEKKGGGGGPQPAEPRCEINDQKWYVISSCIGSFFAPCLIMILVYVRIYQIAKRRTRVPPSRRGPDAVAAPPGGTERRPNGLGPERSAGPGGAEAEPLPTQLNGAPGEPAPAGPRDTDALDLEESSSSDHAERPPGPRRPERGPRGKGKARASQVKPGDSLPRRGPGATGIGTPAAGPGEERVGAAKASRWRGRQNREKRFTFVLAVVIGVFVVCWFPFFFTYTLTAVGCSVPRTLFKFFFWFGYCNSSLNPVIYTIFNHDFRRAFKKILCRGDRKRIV
# Summary of the method: (§1)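 CHO membranes expressing human α2A or α2C receptors were incubated with 1 nM [^3H]raulwolscine for 60 min at 25° C in glycylglycine 25 mM, pH 8.0, then filtered. Nonspecific binding was defined with 1 μM oxymetazoline for α2A and 1 μM spiroxatrine for α2C. pIC50 came from sigmoidal competition curves.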
# [2] = target: T2, human adrenergic-α2C receptor (Homo sapiens, UniProt P18825); test: Radioligand binding experiment for hα2C-adrenoceptor ([3H]raulwolscine); settings: [3H]raulwolscine 1 nM, 60 minutes at 25° C.; for IC50: read-out: h-α2C pIC50 (converted)
# T2 construct: expressed in transfected cells; host or cells: CHO cells, stably transfected; membrane preparation
# T2 sequence (P18825 1-462): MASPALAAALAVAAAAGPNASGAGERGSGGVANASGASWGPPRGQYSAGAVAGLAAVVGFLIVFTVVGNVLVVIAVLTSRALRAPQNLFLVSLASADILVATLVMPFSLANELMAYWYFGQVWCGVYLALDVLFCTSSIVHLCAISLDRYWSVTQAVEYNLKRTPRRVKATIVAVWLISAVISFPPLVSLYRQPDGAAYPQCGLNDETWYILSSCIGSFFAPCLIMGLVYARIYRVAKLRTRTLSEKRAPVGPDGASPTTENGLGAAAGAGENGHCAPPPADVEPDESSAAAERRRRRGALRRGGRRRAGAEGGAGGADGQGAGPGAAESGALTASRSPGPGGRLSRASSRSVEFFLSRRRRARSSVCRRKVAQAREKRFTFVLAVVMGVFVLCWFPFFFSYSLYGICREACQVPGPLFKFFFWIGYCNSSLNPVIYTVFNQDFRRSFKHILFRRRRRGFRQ
# Summary of the method: as §1
# 5HT-transporter = target: T3, 5HT-transporter (Homo sapiens, UniProt P31645); test: Binding experiment for the 5HT-transporter ([3H]paroxetine, human platelet membranes); settings: [3H]paroxetine 0.5 nM, 60 min at 25° C.; for IC50: read-out: h-5HTT pIC50 (converted)
# T3 construct: Human platelet membranes (Oceanix Biosciences Corporation, Hanover, Md., USA) were thawed; tissue Oceanix Biosciences Corporation, Hanover, Md., USA; host or cells: human platelet membranes
# T3 sequence (P31645 whole entry): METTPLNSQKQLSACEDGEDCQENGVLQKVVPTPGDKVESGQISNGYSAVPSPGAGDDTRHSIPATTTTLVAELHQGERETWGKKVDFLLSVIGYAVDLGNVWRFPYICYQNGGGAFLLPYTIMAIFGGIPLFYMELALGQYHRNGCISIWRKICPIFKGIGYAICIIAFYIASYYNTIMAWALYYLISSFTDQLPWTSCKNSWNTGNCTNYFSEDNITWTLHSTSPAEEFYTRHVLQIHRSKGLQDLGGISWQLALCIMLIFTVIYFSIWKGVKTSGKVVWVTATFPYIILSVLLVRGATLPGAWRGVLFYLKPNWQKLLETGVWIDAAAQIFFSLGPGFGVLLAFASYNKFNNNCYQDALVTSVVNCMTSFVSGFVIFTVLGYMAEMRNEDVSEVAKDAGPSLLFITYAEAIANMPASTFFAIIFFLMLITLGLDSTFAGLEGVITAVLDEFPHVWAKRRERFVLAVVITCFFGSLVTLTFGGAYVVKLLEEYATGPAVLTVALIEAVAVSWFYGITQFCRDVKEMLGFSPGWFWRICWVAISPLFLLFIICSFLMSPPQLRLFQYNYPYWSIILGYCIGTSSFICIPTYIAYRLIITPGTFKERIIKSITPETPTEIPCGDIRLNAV
# Summary of the method: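 Competition binding of [3H]paroxetine to human platelet membranes in Tris-HCl 50 mM with 120 mM NaCl and 5 mM KCl; bound radioligand separated by GF/B filtration and counted.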
IC50 [1] [nM],IC50 [2] [nM],IC50 (5HT-transporter) [nM],h-α2A pIC50 [1],h-α2C pIC50 [2],h-5HTT pIC50 (5HT-transporter),SMILES
251,63.1,126,,,,O=c1c(NC2CCN(Cc3ccc4ccccc4c3)CC2)nccn1Cc1cc2ccccc2cn1 [6-10]
794,100,126,,,,O=c1[nH]ncn1CCCn1ccnc(NC2CCN(Cc3ccc4ccccc4c3)CC2)c1=O [6-11]
31.6,5.01,39.8,,,,O=c1c(NC2CCN(Cc3ccc4ccccc4c3)CC2)nccn1-c1ccc2c(c1)CN(CCO)CC2 [6-12]
126,10,25.1,,,,CC(=O)N1CCc2ccc(-n3ccnc(NC4CCN(Cc5ccc6ccccc6c5)CC4)c3=O)cc2C1 [6-13]
100,3.98,10,,,,Cn1ccnc1CN1CCc2ccc(-n3ccnc(NC4CCN(Cc5ccc6ccccc6c5)CC4)c3=O)cc2C1 [6-15]
63.1,25.1,158,,,,O=c1c(NC2CCN(Cc3ccc4ccccc4c3)CC2)nccn1-c1ccccn1 [6-16]
1580,794,501,,,,O=c1[nH]c(-c2cccc(Br)c2)c(Cl)nc1NC1CCN(Cc2ccc3ccccc3c2)CC1 [7-01]
794,200,794,,,,O=c1[nH]c(-c2cccc(CNCCF)c2)c(Cl)nc1NC1CCN(Cc2ccc3ccccc3c2)CC1 [7-03]
631,126,398,,,,O=c1[nH]c(-c2cccc(CNCC3CCCO3)c2)c(Cl)nc1NC1CCN(Cc2ccc3ccccc3c2)CC1 (stereo not drawn) [7-04]
794,126,631,,,,O=c1[nH]c(-c2cccc(CN3CCCCC3)c2)c(Cl)nc1NC1CCN(Cc2ccc3ccccc3c2)CC1 [7-05]
1260,251,1000,,,,O=c1[nH]c(-c2cccc(CN3CCC(F)CC3)c2)c(Cl)nc1NC1CCN(Cc2ccc3ccccc3c2)CC1 [7-06]
1580,501,1260,,,,O=c1[nH]c(-c2cccc(CN3CCOCC3)c2)c(Cl)nc1NC1CCN(Cc2ccc3ccccc3c2)CC1 [7-08]
631,100,200,,,,CN1CCN(Cc2cccc(-c3[nH]c(=O)c(NC4CCN(Cc5ccc6ccccc6c5)CC4)nc3Cl)c2)CC1 [7-10]
200,251,126,,,,COc1ccc(Cn2c(-c3ccc(CO)cc3)c(Cl)nc(NC3CCN(Cc4ccc5ccccc5c4)CC3)c2=O)cc1 [8-03]
1260,1260,794,,,,COC(=O)c1ccc(-c2c(Cl)nc(NC3CCN(Cc4ccc5ccccc5c4)CC3)c(=O)n2Cc2ccc(OC)cc2)cc1 [8-04]
501,158,100,,,,COc1ccc(Cn2c(-c3cccc(CNCC4CCCO4)c3)c(Cl)nc(NC3CCN(Cc4ccc5ccccc5c4)CC3)c2=O)cc1 (stereo not drawn) [8-07]
316,200,63.1,,,,COc1ccc(Cn2c(-c3ccc(CNCC4CCCO4)cc3)c(Cl)nc(NC3CCN(Cc4ccc5ccccc5c4)CC3)c2=O)cc1 (stereo not drawn) [8-08]
100,50.1,50.1,,,,COc1ccc(Cn2c(-c3cccc(CN4CCCCC4)c3)c(Cl)nc(NC3CCN(Cc4ccc5ccccc5c4)CC3)c2=O)cc1 [8-09]
158,79.4,31.6,,,,COc1ccc(Cn2c(-c3cccc(CN4CCC(O)CC4)c3)c(Cl)nc(NC3CCN(Cc4ccc5ccccc5c4)CC3)c2=O)cc1 [8-10]
126,39.8,31.6,,,,COc1ccc(Cn2c(-c3ccc(CN4CCC(O)CC4)cc3)c(Cl)nc(NC3CCN(Cc4ccc5ccccc5c4)CC3)c2=O)cc1 [8-11]
100,79.4,126,,,,COc1ccc(Cn2c(-c3cccc(CN4CCC(F)CC4)c3)c(Cl)nc(NC3CCN(Cc4ccc5ccccc5c4)CC3)c2=O)cc1 [8-12]
501,126,126,,,,COc1ccc(Cn2c(-c3cccc(N4CCC(N5CCCC5)CC4)c3)c(Cl)nc(NC3CCN(Cc4ccc5ccccc5c4)CC3)c2=O)cc1 [8-13]

IC50 [1] [nM],IC50 [2] [nM],IC50 (5HT-transporter) [nM],h-α2A pIC50 [1],h-α2C pIC50 [2],h-5HTT pIC50 (5HT-transporter),SMILES
501,126,50.1,,,,COc1ccc(Cn2c(-c3cccc(CN4CCN(C)CC4)c3)c(Cl)nc(NC3CCN(Cc4ccc5ccccc5c4)CC3)c2=O)cc1 [8-14]
631,79.4,31.6,,,,O=C1c2ccccc2C(=O)N1CCCn1ccnc(N2CCN(Cc3ccc4ccccc4c3)CC2)c1=O [9-01]
,,,6.6,7.5,7.3,O=C(O)C(F)(F)F.O=C1c2ccccc2C(=O)N1CCCn1ccnc(NCCN2CCN(Cc3ccc4ccccc4c3)CC2)c1=O [9-02]
251,39.8,39.8,,,,O=C(CCN(c1nccn(CCC(=O)c2ccccc2)c1=O)C1CCN(Cc2ccc3ccccc3c2)CC1)c1ccccc1 [9-03]
1580,794,25.1,,,,O=C(CCn1ccnc(NC2CCN(Cc3ccc4ncccc4c3)CC2)c1=O)c1ccccc1 [9-05]
1260,316,39.8,,,,O=c1c(NC2CCN(Cc3ccc4ncccc4c3)CC2)nccn1CCCOCc1ccccc1 [9-06]
1580,63.1,50.1,,,,O=C1c2ccccc2C(=O)N1CCCn1ccnc(NC2CCN(Cc3ccc4ncccc4c3)CC2)c1=O [9-07]
316,50.1,126,,,,O=C(CCN(c1nccn(CCC(=O)c2ccccc2)c1=O)C1CCN(Cc2ccc3ccccc3n2)CC1)c1ccccc1 [9-09]
501,63.1,794,,,,O=c1c(NC2CCN(Cc3ccc4ncccc4c3)CC2)nccn1CCCOc1ccccc1 [9-12]
3160,398,> 10000,,,,O=c1[nH]ccnc1NC1CCN(Cc2ccc3ncccc3c2)CC1 [9-13]
631,126,3980,,,,CCOC(=O)CCCCn1ccnc(NC2CCN(Cc3ccc4ccccc4n3)CC2)c1=O [9-14]
631,158,631,,,,O=c1c(NC2CCN(Cc3ccc4ccccc4n3)CC2)nccn1CCOc1ccccc1 [9-15]
2000,63.1,1000,,,,O=C1c2ccccc2C(=O)N1CC#CCn1ccnc(NC2CCN(Cc3ccc4ccccc4n3)CC2)c1=O [9-18]
3160,398,398,,,,O=C(CCN(c1nccn(CCC(=O)c2ccccc2)c1=O)C1CCN(Cc2cnc3ccccc3c2)CC1)c1ccccc1 [9-20]
1260,200,2000,,,,CCOC(=O)CCCCn1ccnc(NC2CCN(Cc3cnc4ccccc4c3)CC2)c1=O [9-21]
398,1000,1260,,,,NCc1ccc(Cn2ccnc(N3CCN(Cc4cccc5ccccc45)CC3)c2=O)cc1 [9-23]
5010,398,> 10000,,,,CN(C)C(=O)Cn1ccnc(N2CCN(Cc3cccc4ccccc34)CC2)c1=O [9-24]
631,398,1260,,,,CC(C)(C)OC(=O)NCc1ccc(Cn2ccnc(N3CCN(Cc4cccc5ccccc45)CC3)c2=O)cc1 [9-25]
501,1000,2510,,,,O=c1c(N2CCN(Cc3cccc4ccccc34)CC2)nccn1Cc1ccccc1 [9-26]
> 10000,794,631,,,,O=C1c2ccccc2C(=O)N1CCCn1ccnc(NC2CCN(Cc3cnc4ccccc4c3)CC2)c1=O [9-27]
> 10000,631,200,,,,O=C(CCN(c1nccn(CCC(=O)c2ccccc2)c1=O)C1CCN(Cc2ccnc3ccccc23)CC1)c1ccccc1 [9-28]
631,501,> 10000,,,,O=c1c(N2CCN(Cc3ccc4ccccc4n3)CC2)nccn1Cc1ccccc1 [9-29]
